Columns and labels:
Assay in all cases: combination Emax (second highest fraction inhibited in the dose matrix, 72 h); higher = more inhibition; extreme values may be limits of the assay
[1] = system: NCI-H522 (Lung Adenocarcinoma)
How it was run: (§1)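 After 24 hours at 37°C and 5% CO2 in 1536-well plates, cells in DMEM/F12 or RPMI plus 10% FBS received two-drug dose matrices for 72 hours. Viability came from CellTiter-Glo 2.0 luminescence and was scaled as inhibition, anchored at 0 by vehicle wells and at 1 by blank wells. Combination Emax is taken as the second-highest inhibition in the matrix, and Bliss excess as the observed combination effect less EA + EB − EA·EB, with EA and EB the single-agent effects.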

COLO-679 (Melanoma) = system: COLO-679 (Melanoma)
How it was run: as §1

[2] = system: CADO-ES1 (Ewing's Sarcoma)
How it was run: as §1

[3] = system: KGN (Other Solid Carcinomas)
How it was run: as §1

[4] = system: COLO-668 (Small Cell Lung Carcinoma)
How it was run: as §1

[5] = system: MOLT-4 (T-Lymphoblastic Leukemia)
How it was run: as §1

[6] = system: MDA-MB-453 (Breast Carcinoma)
How it was run: as §1

[7] = system: NCI-H1838 (Lung Adenocarcinoma)
How it was run: as §1

[8] = system: NCI-H650 (Lung Adenocarcinoma)
How it was run: as §1

[9] = system: OACM5-1 (Esophageal Adenocarcinoma)
How it was run: as §1

[10] = system: SNU-387 (Hepatocellular Carcinoma)
How it was run: as §1

[11] = system: Mo-T (Other Blood Carcinomas)
How it was run: as §1

[12] = system: DU-145 (Prostate Carcinoma)
How it was run: as §1

[13] = system: SKN (Other Solid Carcinomas)
How it was run: as §1

[14] = system: Ca-Ski (Cervical Carcinoma)
How it was run: as §1

[15] = system: KOPN-8 (B-Lymphoblastic Leukemia)
How it was run: as §1

[16] = system: A4-Fuk (B-Lymphoblastic Leukemia)
How it was run: as §1

[17] = system: NCI-H1355 (Lung Adenocarcinoma)
How it was run: as §1

[18] = system: KMRC-1 (Kidney Carcinoma)
How it was run: as §1

Structure (SMILES) | combination Emax [1] | combination Emax (COLO-679 (Melanoma)) | combination Emax [2] | combination Emax [3] | combination Emax [4] | combination Emax [5] | combination Emax [6] | combination Emax [7] | combination Emax [8] | combination Emax [9] | combination Emax [10] | combination Emax [11] | combination Emax [12] | combination Emax [13] | combination Emax [14] | combination Emax [15] | combination Emax [16] | combination Emax [17] | combination Emax [18]
COc1cccc2c1C(=O)c1c(O)c3c(c(O)c1C2=O)C[C@@](O)(C(=O)CO)C[C@@H]3O[C@H]1C[C@H](N)[C@H](O)[C@H](C)O1 [Doxorubicin] + Cc1cc2ncnn2cc1Nc1ncc2c(n1)n(C1CCOCC1)c(=O)n2C [AZD7648] (first compound max 1 µM, 7x7, partner max 10 µM) | 0.697 | 0.959 | 0.873 | 0.901 | 0.93 | 1 | 0.639 | 0.559 | 0.334 | 0.834 | 0.65 | 0.871 | 0.649 | 0.779 | 0.913 | 0.916 | 0.877 | 0.624 | 0.518
COc1cccc(OCCCN)c1-c1cc(Nc2cnc(C#N)cn2)n[nH]1 [Prexasertib] + C=CCn1c(=O)c2cnc(Nc3ccc(N4CCN(C)CC4)cc3)nc2n1-c1cccc(C(C)(C)O)n1 [AZD1775] (first compound max 1 µM, partner max 1 µM) | 0.676 | 0.827 | 0.946 | 0.862 | 0.881 | 1 | 0.909 | 0.704 | 0.732 | 0.802 | 0.729 | 0.539 | 0.691 | 0.488 | 0.874 | 0.995 | 0.906 | 0.756 | 0.627
COc1cccc(OCCCN)c1-c1cc(Nc2cnc(C#N)cn2)n[nH]1 [Prexasertib] + CCc1c2c(nc3ccc(O)cc13)-c1cc3c(c(=O)n1C2)COC(=O)[C@]3(O)CC [SN-38] (first compound max 1 µM, 7x7, partner max 0.3 µM) | 0.8 | 0.826 | 0.996 | 0.89 | 0.973 | 1 | 0.929 | 0.946 | 0.815 | 0.854 | 0.795 | 0.698 | 0.807 | 0.803 | 0.983 | 1 | 0.972 | 0.756 | 0.455
COc1cccc(OCCCN)c1-c1cc(Nc2cnc(C#N)cn2)n[nH]1 [Prexasertib] + CN(C)CCCOc1ccc(-c2ccc3ncc4c(c3c2)n(C2CCOCC2)c(=O)n4C)cn1 [AZD0156] (first compound max 1 µM, 7x7, partner max 1 µM) | 0.385 | 0.871 | 0.956 | 0.753 | 0.758 | 1 | 0.926 | 0.598 | 0.671 | 0.624 | 0.531 | 0.392 | 0.624 | 0.421 | 0.741 | 0.947 | 0.885 | 0.709 | 0.558
COc1cccc(OCCCN)c1-c1cc(Nc2cnc(C#N)cn2)n[nH]1 [Prexasertib] + C[C@@H]1COCCN1C2=NC(=NC(=C2)C3(CC3)[S@](=N)(=O)C)C4=C5C=CNC5=NC=C4 [AZD6738] (first compound max 1 µM, 7x7, partner max 10 µM) | 0.388 | 0.867 | 0.918 | 0.834 | 0.746 | 1 | 0.888 | 0.689 | 0.647 | 0.621 | 0.537 | 0.571 | 0.666 | 0.465 | 0.728 | 0.977 | 0.879 | 0.74 | 0.555
COc1cccc(OCCCN)c1-c1cc(Nc2cnc(C#N)cn2)n[nH]1 [Prexasertib] + Cc1cc2ncnn2cc1Nc1ncc2c(n1)n(C1CCOCC1)c(=O)n2C [AZD7648] (first compound max 1 µM, 7x7, partner max 10 µM) | 0.385 | 0.902 | 0.94 | 0.859 | 0.786 | 1 | 0.908 | 0.54 | 0.653 | 0.643 | 0.552 | 0.523 | 0.649 | 0.425 | 0.794 | 0.966 | 0.89 | 0.714 | 0.539
COc1cccc(OCCCN)c1-c1cc(Nc2cnc(C#N)cn2)n[nH]1 [Prexasertib] + O=C(c1cc(Cc2n[nH]c(=O)c3ccccc23)ccc1F)N1CCN(C(=O)C2CC2)CC1 [Olaparib] (first compound max 1 µM, 7x7, partner max 10 µM) | 0.418 | 0.851 | 0.943 | 0.829 | 0.736 | 1 | 0.776 | 0.46 | 0.708 | 0.641 | 0.542 | 0.52 | 0.603 | 0.439 | 0.787 | 0.961 | 0.919 | 0.746 | 0.558
CCc1c2c(nc3ccc(O)cc13)-c1cc3c(c(=O)n1C2)COC(=O)[C@]3(O)CC [SN-38] + CN(C)CCCOc1ccc(-c2ccc3ncc4c(c3c2)n(C2CCOCC2)c(=O)n4C)cn1 [AZD0156] (first compound max 0.3 µM, 7x7, partner max 1 µM) | 0.43 | 0.659 | 1 | 0.937 | 0.961 | 1 | 0.772 | 0.607 | 0.607 | 0.763 | 0.229 | 0.673 | 0.742 | 0.412 | 0.99 | 0.957 | 0.923 | 0.361 | 0.419
CCc1c2c(nc3ccc(O)cc13)-c1cc3c(c(=O)n1C2)COC(=O)[C@]3(O)CC [SN-38] + O=C(c1cc(Cc2n[nH]c(=O)c3ccccc23)ccc1F)N1CCN(C(=O)C2CC2)CC1 [Olaparib] (first compound max 0.3 µM, 7x7, partner max 10 µM) | 0.389 | 0.743 | 0.987 | 0.918 | 1 | 1 | 0.746 |  |  | 0.796 | 0.146 | 0.724 | 0.813 | 0.596 | 0.997 | 0.965 | 0.96 | 0.366 | 0.318
CC(=O)Nc1cccc(-n2c(=O)n(C3CC3)c(=O)c3c(Nc4ccc(I)cc4F)n(C)c(=O)c(C)c32)c1 [Trametinib] + Cc1nc(-c2cn3c(n2)-c2ccc(-c4cnn(C(C)(C)C(N)=O)c4)cc2OCC3)n(C(C)C)n1 [Taselisib] (first compound max 1 µM, 7x7, partner max 10 µM) | 0.245 | 0.856 | 0.245 | 0.807 | 0.96 | 0.859 | 0.798 | 0.476 | 0.705 | 0.82 | 1 | 0.524 | 0.411 | 0.676 | 0.816 | 0.635 | 1 | 0.69 | 0.748
CC1(C)CCC(CN2CCN(c3ccc(C(=O)NS(=O)(=O)c4ccc(NCC5CCOCC5)c([N+](=O)[O-])c4)c(Oc4cnc5[nH]ccc5c4)c3)CC2)=C(c2ccc(Cl)cc2)C1 [Venetoclax] + C1CN(CCC1(C(=O)N[C@@H](CCO)C2=CC=C(C=C2)Cl)N)C3=NC=NC4=C3C=CN4 [Capivasertib] (first compound max 1 µM, 7x7, partner max 3 µM) | 0.133 | 0.146 | 0.667 | 0.389 | 0.469 | 0.718 | 0.463 | 0.283 | 0.143 | 0.592 | 0.23 | 0.604 | 0.2 | 0.42 | 0.415 | 0.824 | 0.724 | 0.268 | 0.368
CC1(C)CCC(CN2CCN(c3ccc(C(=O)NS(=O)(=O)c4ccc(NCC5CCOCC5)c([N+](=O)[O-])c4)c(Oc4cnc5[nH]ccc5c4)c3)CC2)=C(c2ccc(Cl)cc2)C1 [Venetoclax] + C=CCn1c(=O)c2cnc(Nc3ccc(N4CCN(C)CC4)cc3)nc2n1-c1cccc(C(C)(C)O)n1 [AZD1775] (first compound max 1 µM, partner max 1 µM) | 0.289 | 0.413 | 0.68 | 0.68 | 0.943 | 1 | 0.769 | 0.421 | 0.393 | 0.558 | 0.702 | 0.629 | 0.349 | 0.556 | 0.836 | 1 | 0.883 | 0.607 | 0.394
CC1(C)CCC(CN2CCN(c3ccc(C(=O)NS(=O)(=O)c4ccc(NCC5CCOCC5)c([N+](=O)[O-])c4)c(Oc4cnc5[nH]ccc5c4)c3)CC2)=C(c2ccc(Cl)cc2)C1 [Venetoclax] + CCN(CCO)CCCOc1ccc2c(Nc3cc(CC(=O)Nc4cccc(F)c4)[nH]n3)ncnc2c1 [AZD2811] (first compound max 1 µM, 7x7, partner max 1 µM) | 0.217 | 0.133 | 0.755 | 0.509 | 0.618 | 1 | 0.211 | 0.226 | 0.178 | 0.421 | 0.215 | 0.611 | 0.157 | 0.242 | 0.346 | 0.974 | 0.748 | 0.323 | 0.158

Reference: the supplement of paper PMC11061612
